Assay results published in article PMC12389619, “Discovery and Evaluation of Novel Sulfonamide Derivatives Targeting Aromatase in ER+ Breast Cancer” (Pharmaceuticals, 2025).
Like-named read-outs stand apart in the source and are kept apart here.

Assays:
[1] = test system: NIH3T3 mouse fibroblast cell line; experiment: MTT cytotoxicity assay on NIH3T3; conditions: read-out: NIH3T3 IC50
Method: (§1) MCF7 and NIH3T3 were grown in Dulbecco’s Modified Eagle Medium (DMEM, Sigma-Aldrich, USA); supplemented with 10% fetal bovine serum (Capricorn Scientific, Ebsdorfergrund, Germany) and 1% antibiotics (100 mg/mL of streptomycin and 100 units of penicillin, Sigma-Aldrich, Taufkirchen, Germany); and incubated until confluent at 37 °C in a humidified incubator with a 5% CO2 atmosphere.
(§2) The cytotoxicity assays were performed using the human MCF7, mouse fibroblast NIH3T3, and human non-tumorigenic mammary epithelial MCF12A cell lines in accordance with the MTT procedure previously reported [37, 38].
(§3) The compounds were dissolved in dimethyl sulfoxide (DMSO, AppliChem, Darmstadt, Germany) and diluted to the required concentrations with fresh medium, while the solvent control was prepared with a medium containing 0.1% DMSO. The half-maximal inhibitory concentrations (IC50) of the compounds were determined by calculating the cell viability via the MTT assay. The cells were harvested and counted using an automated cell counter (LUNA II, Logos Biosystems, Gyeonggi, Republic of Korea). […] Following a 24 h incubation period, the MTT solution was added to the wells to a final concentration of 5 mg/mL. The cells were incubated for a 3 h period, after which point the medium was removed and 100 µL of DMSO was added. The absorbances were measured at 540 nm using a MultiMode Plate Reader (BioTek, HTX Synergy, Winooski, Vermont, USA).

[2] = test system: MCF7 human breast cancer cell line; experiment: MTT cytotoxicity assay on MCF7; conditions: read-out: MCF7 IC50
Method: as §1, §2, §3

[3] = molecular target: T1, Aromatase (CYP19A) (Homo sapiens, UniProt P11511); experiment: biochemical
T1 sequence (P11511 1-503): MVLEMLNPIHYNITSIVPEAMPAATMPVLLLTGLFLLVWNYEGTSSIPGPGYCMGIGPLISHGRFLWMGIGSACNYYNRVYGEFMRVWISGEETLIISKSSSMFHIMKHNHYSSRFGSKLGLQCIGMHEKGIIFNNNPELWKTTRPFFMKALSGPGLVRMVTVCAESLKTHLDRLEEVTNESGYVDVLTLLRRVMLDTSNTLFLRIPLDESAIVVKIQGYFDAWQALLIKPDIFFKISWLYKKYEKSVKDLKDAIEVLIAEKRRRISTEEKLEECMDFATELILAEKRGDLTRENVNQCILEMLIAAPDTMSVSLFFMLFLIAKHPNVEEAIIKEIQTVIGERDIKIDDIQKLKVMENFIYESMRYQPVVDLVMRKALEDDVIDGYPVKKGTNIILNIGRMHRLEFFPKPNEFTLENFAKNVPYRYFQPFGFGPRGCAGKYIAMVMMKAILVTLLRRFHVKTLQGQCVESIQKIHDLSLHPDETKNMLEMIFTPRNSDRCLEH

[4] = test system: MCF12A non-tumorigenic mammary cell line; experiment: MTT cell viability on MCF12A; type: cell-based, human; conditions: concentration range 1 mM–1 nM, 24 h
Method: This fact is of crucial importance to the effective and safe treatment of cancer since selectivity refers to the ability of a drug to target cancer cells while minimizing the harm to healthy cells. This targeted approach has the potential to yield more efficacious therapies with a reduced incidence of adverse effects, thereby enhancing patient outcomes.
MCF12A was maintained in DMEM/Ham’s F12 (1:1); supplemented with 5% horse serum, 20 ng/mL of human epidermal growth factor, 0.01 mg/mL of bovine insulin, 500 ng/mL of hydrocortisone, and 100 U/mL (50 µg/mL) of penicillin–streptomycin; and maintained at 37 °C in a humidified atmosphere of 5% CO2.

[5] = molecular target: T1, Aromatase (CYP19A); conditions: read-out: Aromatase IC50; means of quartet assays

Compound | IC50 [3] [µM] | IC50 ([1]; Mus musculus, NIH3T3, 24 h) [µM] | IC50 ([2]; Homo sapiens, MCF7, 24 h) [µM] | effect on MCF12A cell viability [4] | IC50 ([1]; MTT, 24 h, healthy model, means of quartet assays) [µM] | IC50 [5] [µM] | IC50 ([2]; MTT, 24 h, means of quartet assays) [µM]
Cc1ccc(S(=O)(=O)NCCN2CCCCC2)cc1 [Compound 11] | – | 29.6 ± 0.812 | 43.6 ± 1.86 | – | – | – | –
Cc1ccc(S(=O)(=O)Nc2ccc(Cl)cn2)cc1 [Compound 4, N-(5-chloropyridin-2-yl)-4-methylbenzenesulfonamide] | > 100 | > 100 | > 100 | – | – | – | –
O=S(=O)(NCCc1ccccn1)c1ccccc1 [Compound 1, N-(2-(pyridin-2-yl)ethyl)benzenesulfonamide] | – | 46.9 ± 1.99 | 7.51 ± 0.296 | – | – | – | –
Cc1ccc(S(=O)(=O)NCCC2CCCN2C)cc1 (stereo not drawn) [Compound 14, 4-methyl-N-(2-(1-methylpyrrolidin-2-yl)ethyl)benzenesulfonamide] | 0.051 ± 0.001 | 56.1 ± 1.93 | 10.5 ± 0.477 | – | – | – | –
CN1CCCC1CCNS(=O)(=O)c1ccccc1 (stereo not drawn) [Compound 13, N-(2-(1-methylpyrrolidin-2-yl)ethyl)benzenesulfonamide] | – | 49.6 ± 1.73 | 8.06 ± 0.319 | – | – | – | –
Cc1ccc(S(=O)(=O)Nc2ncc(Cl)cc2Cl)cc1 [Compound 5, N-(3,5-dichloropyridin-2-yl)-4-methylbenzenesulfonamide] | > 100 | 76.6 ± 1.13 | > 100 | – | – | – | –
Cc1ccc(S(=O)(=O)NCCCN2CCCC2)cc1 [Compound 12, 4-methyl-N-(3-(pyrrolidin-1-yl)propyl)benzenesulfonamide] | > 1000 | > 100 | 32.1 ± 1.17 | – | – | – | –
O=S(=O)(NCCN1CCOCC1)c1ccccc1 [Compound 15, N-(2-morpholinethyl)benzenesulfonamide] | – | 39.3 ± 0.995 | 12.4 ± 0.417 | – | – | – | –
O=S(=O)(Cc1ccccc1)NCCN1CCCCC1 [Compound 10, 1-phenyl-N-(2-(piperidin-1-yl)ethyl)methanesulfonamide] | 0.052 ± 0.002 | 30.9 ± 1.03 | 6.2 ± 0.258 | – | – | – | –
O=S(=O)(NCCN1CCCCC1)c1ccccc1 [Compound 9, N-(2-(piperidin-1-yl)ethyl)benzenesulfonamide] | – | 58.2 ± 0.952 | 3.29 ± 0.119 | no effects | – | – | –
COc1cccc2c1C(=O)c1c(O)c3c(c(O)c1C2=O)C[C@@](O)(C(=O)CO)C[C@@H]3O[C@H]1C[C@H](N)[C@H](O)[C@H](C)O1 [Doxorubicin, reference compound] | – | > 100 | – | – | – | – | –
4-methyl-N-(2-morpholinethyl)benzenesulfonamide [Compound 16] | – | – | – | – | 50.9 ± 1.51 | 0.16 ± 0.006 | 19.6 ± 0.678

Second part, led by results:

IC50 [3] [µM] | Compound | IC50 ([1]; Mus musculus, NIH3T3, 24 h) [µM] | IC50 ([2]; Homo sapiens, MCF7, 24 h) [µM] | effect on MCF12A cell viability [4] | IC50 ([1]; MTT, 24 h, healthy model, means of quartet assays) [µM] | IC50 [5] [µM] | IC50 ([2]; MTT, 24 h, means of quartet assays) [µM]
> 100 | O=S(=O)(Cc1ccccc1)Nc1ncc(Cl)cc1Cl [Compound 6, N-(3,5-dichloropyridin-2-yl)-1-phenylmethanesulfonamide] | > 100 | 25.3 ± 0.945 | – | – | – | –
> 1000 | O=S(=O)(NC1CCN(Cc2ccccc2)CC1)c1ccccc1 [Compound 7, N-(1-benzylpiperidin-4-yl)benzenesulfonamide] | 44.3 ± 1.05 | 28.5 ± 0.514 | – | – | – | –
> 1000 | Cc1ccc(S(=O)(=O)NC2CCN(Cc3ccccc3)CC2)cc1 [Compound 8, N-(1-benzylpiperidin-4-yl)-4-methylbenzenesulfonamide] | > 100 | > 100 | – | – | – | –
0.035 ± 0.001 | Cc1ccc(S(=O)(=O)Nc2ccccn2)cc1 [Compound 3, 4-metyl-N-(pyridin-2-yl)benzenesulfonamide] | 64.3 ± 1.83 | 2.68 ± 0.104 | – | – | – | –
0.206 ± 0.009 | O=S(=O)(Cc1ccccc1)NCCN1CCOCC1 [Compound 17, N-(2-morpholinoethyl)-1-phenylmethanesulfonamide] | 43.1 ± 1.03 | 14.6 ± 0.522 | – | – | – | –
0.248 ± 0.01 | Cc1ccc(S(=O)(=O)NCCc2ccccn2)cc1 [Compound 2, 4-methyl-N-(2-(pyridin-2-yl)ethyl)benzenesulfonamide] | 51.4 ± 1.74 | 15.4 ± 0.356 | – | – | – | –
